Data set [1] concerns hepatitis B virus (HBV). Put plainly: Anti-hepatitis B virus activity: HBV DNA in supernatant of HepG2.2.15 cells by qPCR. The data set is classed as cell-based. Conditions: 192 h, supernatant collected on day 8. The text has this: (§1) In this experiment, real-time fluorescent quantitative PCR (qPCR) method was used to detect the content of HBV DNA in the supernatant of HepG2.2.15 cells to determine the anti-hepatitis B virus activity of the compound in HepG2.2.15 cells, and to detect cell viability impact of the test compound against HepG2.2.15 by Cell-titer Blue method. In the experiment, entecavir (ETV) was used as a reference compound to monitor the quality of the experiment.
On day 1, the cells were planted into a 96-well plate, the compound was added to treat the cells on day 2, a new culture medium containing the compound was replaced on day 5, and the supernatant was collected on day 8 to extract DNA. Quantitative PCR was used to detect the content of HBV DNA. Both the test compound and the control compound were diluted in a series of 3 times with 8 concentration points, and 2 replicate wells were measured in parallel. The final concentration of DMSO in the culture medium is 0.5%.
The calculation formula of the inhibition percentage is as follows: % inh.=(1-HBV copy number of sample/HBV copy number of 0.5% DMSO control)×100
EC50 was analyzed by Graphpad Prism software (four parameter logistic equations).

The nature of data set [2]: Cytotoxicity test (Cell-titer Blue method) in HepG2.2.15 cells. The data set is classed as cell-based. The settings on record: human, six days after treatment, highest concentration tested 100 μM, read-out: HepG2.2.15 cell viability CC50.
Text: as §1
The compound concentration, plate layout, and compound treatment process are consistent with the antiviral experiments. In six days after the cells were treated with the compound, the cell viability was measured with Cell-titer Blue.
Analyze the data and calculate relative cell viability: Use the following formula to calculate the percentage of cell viability: % Cell viability=(sample fluorescence reading-fluorescence reading of culture medium control)/(fluorescence reading of DMSO control-fluorescence reading of the culture medium control)×100.
Finally, GraphPad Prism software was used to calculate the CC50 value of the compound.

Some results are limits rather than exact numbers.

The compound `C#CCNC(=O)C(=O)c1c(C)c(C(=O)Nc2ccc3nccnc3c2)n(C)c1C` [Compound 67, 1,3,5-Trimethyl-2-amide-N-(quinoxalin-6-yl)-4-(2-propargylamino-oxalyl)-pyrrole] returned an EC50 in data set [1] of 0.5 to 5 µM. Besides, in data set [2], the CC50 at 6 days was more than 100 µM.
In data set [1], `C#CCNC(=O)C(=O)c1c(C)c(C(=O)Nc2ccc3ncccc3c2)n(C)c1C` [Compound 68, 1,3,5-Trimethyl-2-amide-N-(quinolin-6-yl)-4-(2-propargylamino-oxalyl)-pyrrole] came in with an EC50 of 0.5 to 5 µM. The half-maximal cytotoxic concentration (CC50) at 6 days in data set [2] was more than 100 µM.
In data set [1], `C#CCNC(=O)C(=O)c1c(C)c(C(=O)Nc2ccc3c(c2)CCO3)n(C)c1C` [Compound 69, 1,3,5-Trimethyl-2-amide-N-(2,3-dihydrobenzofuran-5-yl)-4-(2-propargylamino-oxalyl)-pyrrole] yielded an EC50 of 0.05 to 0.5 µM. In data set [2], the 50% cytotoxic concentration (CC50) at 6 days is more than 100 µM.
The compound `C#CCNC(=O)C(=O)c1c(C)c(C(=O)Nc2ccc3scnc3c2)n(C)c1C` [Compound 70, 1,3,5-Trimethyl-2-amide-N-(benzothiazol-5-yl)-4-(2-propargylamino-oxalyl)-pyrrole] registered an EC50 in data set [1] of 0.5 to 5 µM. Besides, the half-maximal cytotoxic concentration (CC50) at 6 days in data set [2] is more than 100 µM.
For `C#CCNC(=O)C(=O)c1c(C)c(C(=O)Nc2ccc3c(c2)ncn3C)n(C)c1C` [Compound 72, 1,3,5-Trimethyl-2-amide-N-(1-methyl-1H-benzimidazol-5-yl)-4-(2-propargylamino-oxalyl)-Pyrrole], in that order: 0.5 to 5 µM and more than 100 µM.
`C#CCNC(=O)C(=O)c1c(C)c(C(=O)Nc2ccc3c(cnn3C)c2)n(C)c1C` [Compound 73, 1,3,5-trimethyl-2-amide-N-(1-methyl-1H-indazol-5-yl)-4-(2-propargylamino-oxalyl)-pyrrole]: the concentration for a half-maximal effect (EC50) in data set [1] fell in the range of 0.5 to 5 µM. For the same compound, in data set [2], the CC50 at 6 days was more than 100 µM.
Compound `C#CCNC(=O)C(=O)c1c(C)c(C(=O)Nc2ccc3oncc3c2)n(C)c1C` [Compound 74, 1,3,5-Trimethyl-2-amide-N-(benzisoxazol-5-yl)-4-(2-propargylamino-oxalyl)-pyrrole] returned an EC50 in data set [1] of 0.5 to 5 µM. The cytotoxic concentration (CC50) at 6 days in data set [2] was more than 100 µM.
Regarding `Cc1c(C(=O)C(=O)NC2(c3c[nH]nn3)CC(F)(F)C2)c(C)n(C)c1C(=O)Nc1ccc2occc2c1` [Compound 77, 1,3,5-trimethyl-2-amide-N-(benzofuran-5-yl)-4-(2-(3,3-difluoro-1-(1H-1,2,3-Triazol-4-yl)cyclobutane-1-amino)-oxalyl)-pyrrole], in data set [1], the EC50 was not above 0.05 µM. Also, the half-maximal cytotoxic concentration (CC50) at 6 days in data set [2] is more than 100 µM.
For `Cc1c(C(=O)C(=O)NC(C)(C)c2c[nH]nn2)c(C)n(C)c1C(=O)Nc1ccc2occc2c1` [Compound 78, 1,3,5-trimethyl-2-amide-N-(benzofuran-5-yl)-4-(2-(2-(1H-1,2,3-triazole-4-yl)-2-propylamino)-oxalyl)-pyrrole], in that order: not above 0.05 µM and more than 100 µM.
In turn, `C#CC(C)(C)NC(=O)C(=O)c1c(C)c(C(=O)Nc2ccc(F)c(F)c2)n(S(C)(=O)=O)c1C` [Compound 81, 1-Methylsulfo-2-amide-N-(3,4-difluorophenyl)-3,5-dimethyl-4-(2-(1,1-dimethylpropynamine)-oxalyl)pyrrole] had a 50% effective concentration (EC50) in data set [1] of 0.05 to 0.5 µM. The CC50 at 6 days in data set [2] was more than 100 µM.
`Cc1c(C(=O)C(=O)NC(C)(C)C)coc1C(=O)Nc1ccc(F)c(Cl)c1` [Compound 83, 2-Amide-N-(3-chloro-4-fluoro-phenyl)-3-methyl-4-(2-tert-butylamino-oxalyl)-furan] yielded a 50% effective concentration (EC50) in data set [1] of more than 50 µM. In data set [2], the 50% cytotoxic concentration (CC50) at 6 days is more than 100 µM.
`Cc1c(C(=O)C(=O)NC(C)(C)C)csc1C(=O)Nc1ccc(F)c(Cl)c1` [Compound 85, 2-Amide-N-(3-chloro-4-fluoro-phenyl)-3-methyl-4-(2-tert-butylamino-oxalyl)-thiophene] showed a concentration for a half-maximal effect (EC50) in data set [1] of 0.5 to 5 µM. The CC50 at 6 days in data set [2] came to 96 µM.

The values are drawn from US12329741B2, “HBV inhibitor and its use” (priority 2019, dated 2025).
